By NOAEL is commonly meant the highest tested level that showed no adverse finding. Broadly, the LOAEL is the lowest dose or exposure tested at which an adverse effect was seen.

Values joined by “and” are separate entries in the source; they are usually repeats but may differ in a detail not shown here. Identical values can stand only once. A value given as a limit tells only on which side of the number the result lay.

Series [1] deals with Canidae. Conditions: chronic; duration: 4 months; oral; Beagle.
The next series relates to Oryctolagus sp. The settings on record: acute.
Another series relates to Gallus sp. Conditions: White Leghorn.
The next series deals with Monkey. Conditions: subchronic; duration: 3 months; inhalation.
Another series has as its system Cavia porcellus. The settings on record: subchronic; duration: 3 months; inhalation; Guinea Pig.
The test system of series [2] is Mus musculus. The settings on record: for LD50: acute.
Series [3] deals with Canidae. The settings on record: chronic; duration: 9 years; oral; capsule; F; Beagle; hepatic.
Series [4] relates to Mus musculus. The series is described as follows: LD0; higher = less toxic. The settings on record: acute; oral.
Series [5] concerns Canidae. The settings on record: chronic; duration: 9 years; oral; capsule; F; Beagle; hepatic. This is another data set of the same source.
Series [6] relates to Homo sapiens. The settings on record: clinical; oral; M/F; decreased erythrocyte cu, zn-superoxide dismutase (esod) activity in healthy adult male and female volunteers.
The test system of series [7] is Homo sapiens. The settings on record: clinical, duration: 10 weeks, oral, F, hematological.
Series [8] deals with Homo sapiens. Conditions: clinical; oral; M/F; No significant adverse effects.
Series [9] deals with Homo sapiens. The settings on record: clinical; duration: 10 weeks; oral; diet; Blood: Decreased blood enzyme.
The next series relates to Megascops sp. Conditions: oral.
Another series relates to Anas platyrhynchos. The settings on record: oral.
The subject of a further series is Nycticorax nycticorax. The settings on record: oral.
Setting [10] is: subchronic, duration: 13 weeks, oral, gavage, F33/N.
The mark [11] stands for this setting: subchronic, duration: 13 weeks, oral, gavage, B6C3F1.
[12] abbreviates: subchronic, duration: 90 days, oral, diet.
Where [13] appears, read: chronic, duration: 24 months, oral, diet, Sprague-Dawley.
The mark [14] stands for this setting: subchronic, duration: 8 weeks, oral, diet, Sprague-Dawley.

Take `CC(C)(C)c1ccc(OP2OCC3(CO2)COP(Oc2ccc(C(C)(C)C)cc2C(C)(C)C)OC3)c(C(C)(C)C)c1` (stereo unspecified) [Bis(2,4-di-tert-butylphenyl) pentaerythritol diphosphite]: the NOAEL in the series with Canidae [1] was 12 mg/kg-day; in the series on Rattus norvegicus (chronic, duration: 24 months, oral, diet, Wistar), 39 mg/kg-day; in the series with Rattus norvegicus (reproduction developmental, duration: 90 days, oral, diet, Crl:CD(SD), generation: F0), 1000 ppm; in the series on Rattus norvegicus (reproduction developmental, duration: 90 days, oral, diet, M, Crl:CD(SD)) it was 22 mg/kg-day. In addition, the LD50 in the series on Oryctolagus sp. (dermal, New Zealand) was above 2000 mg/kg; in the series on Rattus norvegicus (acute, oral, Sprague-Dawley) it was 5580 mg/kg; with Gallus sp. (acute, oral, gavage), above 6080 mg/kg. In the series on Rattus norvegicus (acute, inhalation, Sprague-Dawley), the LC50 was above 2000 mg/m3.

In the case of `CCCCC(CC)COP(=O)(OCC(CC)CCCC)OCC(CC)CCCC` (stereo unspecified) [Tris(2-ethylhexyl) phosphate], the LD50 with Oryctolagus sp. (dermal) is 20000 mg/kg; with Oryctolagus sp. (injection, intravenous) it was above 358 mg/kg; in the series on Oryctolagus sp. (intertracheal), above 1810 mg/kg; in the series with Rattus norvegicus (acute, inhalation), above 0.45 mg/L. Also, the NOAEL stood at 85 mg/m3 in the series on Monkey; 1000 mg/kg-day in the series with Rattus norvegicus (setting [10]); 430 mg/kg-day in the series on Rattus norvegicus (subchronic, duration: 30 days, oral, diet); 1.6 mg/m3 in the series with Cavia porcellus; 2000 mg/kg-day in the series with Mus musculus [2] (setting [11]). Moreover, the LOAEL worked out at 2000 mg/kg-day with Rattus norvegicus (setting [10]), 9.6 mg/m3 in the series on Cavia porcellus and 4000 mg/kg-day in the series on Mus musculus [2] (setting [11]).

Consider `Nc1ccc(Cc2ccc(N)c(Cl)c2)cc1Cl` [4,4'-Methylenebis(2-chloroaniline)], for which the results for the LOAEL in the series on Canidae [3] and with Canidae [5] were 7.3 mg/kg-day and 10 mg/kg-day, respectively. In addition, in the series with Mus musculus [4], the LD0 was found to be 640 mg/kg. In the series with Oryctolagus sp. (dermal), this molecule registered an LD50 above 5000 mg/kg.

With `CCCCCCCCCc1ccc(OP(Oc2ccc(CCCCCCCCC)cc2)Oc2ccc(CCCCCCCCC)cc2)cc1` [Nonylphenolphosphite(3:1)], the LD50 in the series with Oryctolagus sp. (dermal, semiocclusive, New Zealand) was above 2000 mg/kg; with Rattus norvegicus (acute, dermal, semiocclusive, RAI f1), above 2000 mg/kg; in the series on Rattus norvegicus (acute, injection, Intraperitoneal, RAI f1), above 1000 mg/kg; with Mus musculus [2] (oral, gavage), above 10000 mg/kg. In addition, the NOAEL stood at 1000 mg/kg-day in the series on Rattus norvegicus (developmental, duration: 4 weeks, oral, gavage, Sprague-Dawley); 3300 ppm with Rattus norvegicus (reproduction developmental, duration: 2 years, oral, diet, generation: F1); 1000 mg/kg-day in the series with Rattus norvegicus (reproduction developmental, duration: 4 weeks, oral, gavage, F, Sprague-Dawley); 200 mg/kg-day in the series with Rattus norvegicus (reproduction developmental, duration: 4 weeks, oral, gavage, M, Sprague-Dawley); 200 mg/kg-day with Rattus norvegicus (reproduction developmental, duration: 4 weeks, oral, gavage, Sprague-Dawley, generation: F0); 200 mg/kg-day with Rattus norvegicus (reproduction developmental, duration: 4 weeks, oral, gavage, Sprague-Dawley, generation: F1). Also, the NOAEL in the series with Gallus sp. (developmental, duration: 5 days, injection) is 5 mg. The “NOAEL (% diet)” value is 1 in the series on Rattus norvegicus (subchronic, duration: 12 weeks, oral, diet) and 1 in the series on Rattus norvegicus (setting [12]). In addition, in the series with Rattus norvegicus (setting [12]), the “LOAEL (% diet)” value was determined as 5.

As for `[Zn]` [Zinc], the values for the LOAEL in the series with Homo sapiens [6] and in the series on Homo sapiens [9] were 0.91 mg/kg-day and 1 mg/kg-day, respectively. Also, the NOAEL was 0.83 mg/kg-day with Homo sapiens [7]; 0.83 mg/kg-day with Homo sapiens [7] (capsule); 220 mg/day and 600 mg/day in the series on Homo sapiens [8].

The molecule `O=C(Nc1ccc(Cl)cc1)Nc1ccc(Cl)c(Cl)c1` [Triclocarban] returned an LD0 with Mus musculus [4] above 5000 mg/kg. The LD50 was above 10000 mg/kg with Oryctolagus sp. (dermal, occlusive, New Zealand); above 50100 mg/kg in the series with Rattus norvegicus (acute, oral, gavage, Sprague-Dawley); 2100 mg/kg with Mus musculus [2] (injection, Intraperitoneal). Also, the LOAEL in the series on Rattus norvegicus (setting [13]) came to 75 mg/kg-day; with Rattus norvegicus (setting [14]), 250 mg/kg-day. Moreover, the NOAEL was 25 mg/kg-day in the series on Rattus norvegicus (setting [13]); above 3000 ppm with Rattus norvegicus (developmental, oral, diet, Sprague-Dawley); above 3000 ppm in the series on Rattus norvegicus (reproduction developmental, oral, diet, F, Sprague-Dawley); 3000 ppm with Rattus norvegicus (reproduction developmental, oral, diet, Sprague-Dawley, generation: F0); 1000 ppm in the series with Rattus norvegicus (reproduction developmental, oral, diet, Sprague-Dawley, generation: F1); 3000 ppm in the series on Rattus norvegicus (reproduction developmental, oral, diet, Sprague-Dawley, generation: F2). Moreover, the NOAEL in the series on Rattus norvegicus (setting [14]) stood at 75 mg/kg-day.

Turning to `C[Se]CCC(N)C(=O)O` (stereo unspecified) [Selenomethionine], the results for the LOAEL in the series on Megascops sp. and in the series with Anas platyrhynchos were 1.5 mg/kg-day and 0.8 mg/kg-day, respectively. Also, the values for the NOAEL in the series on Megascops sp., with Anas platyrhynchos and in the series with Nycticorax nycticorax were 0.44 mg/kg-day, 0.4 mg/kg-day and 1.8 mg/kg-day, respectively.

(Values after EPA's ToxValDB 9.5.)
